In ChEMBL document CHEMBL1201862, “PubChem BioAssay data set” (2004):
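All cell lines were grown in 96-well plates and treated with compound for 48 hours. GI50 is the concentration that inhibits growth by half.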 The source made the active and inactive calls. No stated cut-off is given here; in the data, active = GI50 up to about 1.1 µM and inactive = higher.

Columns and labels:
Assay in all cases: NCI anticancer screen, dose series, 48 h
ACHN = test system: ACHN
HCC 2998 = test system: HCC 2998
HCT-116 = test system: HCT-116
HOP-62 = test system: HOP-62
HOP-92 = test system: HOP-92
HT-29 = test system: HT-29
K562 = test system: K562
KM12 = test system: KM12
LOX IMVI = test system: LOX IMVI
Malme-3M = test system: Malme-3M
NCI-H522 = test system: NCI-H522
OVCAR-4 = test system: OVCAR-4
RXF 393 = test system: RXF 393
SF-539 = test system: SF-539
SK-MEL-28 = test system: SK-MEL-28
SK-MEL-2 = test system: SK-MEL-2
SK-MEL-5 = test system: SK-MEL-5
TK-10 = test system: TK-10
U-251 = test system: U-251
UACC-62 = test system: UACC-62

Measured: GI50

Cc1cccc(C(C)C)c1NC(=O)CC1Sc2ccccc2NC1=O (stereo not given)
inactive: ACHN > 100 µM | HCC 2998 > 100 µM | HCT-116 55.6 µM | HOP-62 > 100 µM | HOP-92 37.8 µM | HT-29 48.9 µM | K562 33.1 µM | KM12 > 100 µM | LOX IMVI 94.4 µM | Malme-3M 31.8 µM | NCI-H522 78.7 µM | OVCAR-4 > 100 µM | RXF 393 87.3 µM | SF-539 > 100 µM | SK-MEL-28 83.6 µM | SK-MEL-2 42.5 µM | SK-MEL-5 35.4 µM | TK-10 > 100 µM | U-251 > 100 µM | UACC-62 44.4 µM

COC1CCC(O)C(CO)O1 (stereo not given)
inactive: ACHN > 100 µM | HCC 2998 > 100 µM | HCT-116 > 100 µM | HOP-62 > 100 µM | HOP-92 > 100 µM | HT-29 > 100 µM | K562 11.2 µM | KM12 > 100 µM | LOX IMVI 23.3 µM | Malme-3M 20.5 µM | NCI-H522 13.4 µM | OVCAR-4 > 100 µM | RXF 393 > 100 µM | SF-539 41.2 µM | SK-MEL-28 > 100 µM | SK-MEL-2 > 100 µM | SK-MEL-5 > 100 µM | TK-10 > 100 µM | U-251 > 10 µM | UACC-62 > 100 µM
